Laboratory results as given in PMC11725581, “Developing novel Lin28 inhibitors by computer aided drug design” (Cell Death Discovery, 2025).

How the values were obtained:
[1] = molecular target: T1, Lin28b ZKD (Homo sapiens, UniProt Q6ZN17); assay: EMSA, Lin28b ZKD:pre-let-7d complex formation; type: binding; details: 1 μM Lin28 ZKD, 10 nM IRDye800-labeled pre-let-7d probe
T1 sequence (Q6ZN17 127-166 limits assumed): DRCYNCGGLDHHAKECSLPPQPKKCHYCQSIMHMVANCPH
Method: (§1) We next validated the newly developed compounds using EMSA, a non-florescent-based assay to detect Lin28b ZKD:pre-let-7 complex formation. Similar to the FP assays, we first optimized the experimental conditions by titrating: (1) IRDye800-labeled pre-let-7d RNA probe, (2) Lin28b ZKD protein, and (3) non-labeled pre-let-7 probe as a competitor (Fig. 2C). For the validation experiments, 1 μM Lin28 ZKD and 10 nM of IRDye800-labeled pre-let-7d probe were mixed with each candidate compound. Compounds C1632 and Ln15 were used as control Lin28 inhibitors, respectively. […] Regardless, we use these two biochemical assays to shortlist the most promising compounds for further characterization. […] While our inhibitors directly target the Lin28 ZKD, it is unclear whether C1632 may bind to domains other than the ZKD or allosterically disrupt Lin28’s capacity to bind its RNA substrates.
EMSA followed the standard protocols we published. An IRDye800CWN-labeled pre-Let-7d RNA probe (5’-IRD800CWN-[…]-3’) was purchased from IDT (Coralville, IA, USA). Lin28a or Lin28b proteins were incubated with 300 nM of probe in a standard 20 uL EMSA reaction in a reaction buffer containing 20 mM HEPES-NaOH, pH 7.4, 2 mM DTT, 3 mM MgCl2, 0.05% NP-40, protease inhibitors, and 0.1 ug poly[dI:dC]. After incubation for 30 min at 37 °C, reactions were loaded onto 4% non-denatured polyacrylamide gel in 0.5× TBE buffer. The RNA oligo bands were visualized by using the Li-Cor Odyssey 9120 Infrared Imaging System.

[2] = molecular target: T2, Lin28a protein (Homo sapiens, UniProt Q9H9Z2); assay: EMSA with Lin28a protein and pre-let-7d probe; type: binding; details: same EMSA conditions
T2 sequence (Q9H9Z2 1-209): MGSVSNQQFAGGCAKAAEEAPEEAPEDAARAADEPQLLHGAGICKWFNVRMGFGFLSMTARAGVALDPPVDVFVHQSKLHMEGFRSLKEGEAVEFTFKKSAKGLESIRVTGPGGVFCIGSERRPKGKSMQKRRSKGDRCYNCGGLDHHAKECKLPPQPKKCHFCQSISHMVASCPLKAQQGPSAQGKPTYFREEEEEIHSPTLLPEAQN
Method: as §1
EMSA followed the standard protocols we published. An IRDye800CWN-labeled pre-Let-7d RNA probe (5’-IRD800CWN-[…]-3’) was purchased from IDT (Coralville, IA, USA). Lin28a or Lin28b proteins were incubated with 300 nM of probe in a standard 20 uL EMSA reaction in a reaction buffer containing 20 mM HEPES-NaOH, pH 7.4, 2 mM DTT, 3 mM MgCl2, 0.05% NP-40, protease inhibitors, and 0.1 ug poly[dI:dC]. After incubation for 30 min at 37 °C, reactions were loaded onto 4% non-denatured polyacrylamide gel in 0.5× TBE buffer. […]

[3] = test system: DuNE spheroids; assay: DuNE 3D spheroid growth (Incucyte); type: cell-based; details: 0-100 μM, 0-6 days, read-out: concentration to achieve 50% spheroid growth inhibition
Source text: (§2) CSCs have characteristic tumorigenic, self-renewal, and differentiation properties. The self-renewal ability is hijacked by CSCs that makes them both tumorigenic and capable of sustaining long-term tumor growth, which can be evaluated by 3D spheroid and colony formation assays. We established a DuNE spheroid model in which DuNE cells formed 3D spheroids in 96-well plates (Figure S3). By integrating this 3D culture with the Incucyte live-cell imaging system, we quantified the sizes of the spheroid growth over 0–6 days to generate a spheroid growth curve. Using this model system, we treated the DuNE spheroids with increasing doses (0–100 μM) of C1632, Ln15, and Ln268 for 0–6 days. […] In addition, classic colony formation assays were used to measure the stemness in the DuNE model. Colony formation counts, which were ~50 under vehicle treatment after 14 days, decreased by 22% in C1632-treated plates, and by 75% and 96% in the Ln15 and Ln268 treated plates, respectively (Fig. 4D).
For a spheroid generation, 1000 cells/well were seeded in 96-well ULA round-bottomed plates (Corning, Amsterdam) using a multichannel pipette. 3D multicellular spheroids were spontaneously generated after 24 h culture. Plates were incubated for 6 days at 37 °C, 5% CO2, and 95% humidity. DuNE and Du145 cells were cultured in DMEM with 10% FBS. Fully automated image analysis of tumor spheroids was carried out with the Incucyte® S3 Live-Cell Analysis System. The size and shape of multicellular spheroids were analyzed by using the Incucyte® Spheroid Analysis Software Module.

[4] = test system: DuNE cells; assay: Colony formation assay, DuNE cells; type: cell-based; details: 14 days, vs vehicle (~50 colonies)
Source text: as §2
In the colony formation assays, cancer cells were seeded in 0.7% soft agar in a 6-well plate, with a 1% soft agar bottom base coating. Cells were allowed to grow for 14 days to form colonies. Colonies were stained with crystal violet and imaged by stitching 5X field images together to capture the entire well (Zeiss light microscope [Carl Zeiss]). Colony numbers were counted according to their diameters (100-300um or >300um). Three independent biological replicates were performed for all the assays.

[5] = test system: cancer cells; set-up: method as in PMID 27548809; details: cited from earlier work
[6] = molecular target: T1, Lin28b ZKD; assay: Fluorescence polarization (FP) assay, Lin28b ZKD:pre-let-7d interaction; type: binding; details: 10 nM pre-let-7d probe, 1 μM Lin28b ZKD
Method: We conducted two biochemical assays, FP and EMSA, to validate the predicted compounds. To optimize the FP assays, we performed a series of titrations using: (1) FAM-labeled pre-let-7d RNA probe, (2) Lin28b ZKD protein, and (3) non-labeled pre-let-7 probe as a competitor (Fig. 2A). These assays yielded the optimal concentrations required for the subsequent FP validation assays, namely 10 nM for the pre-let-7d probe and 1 μM for Lin28b ZKD protein. The FP signal from the free probe was set as 0%, while the signal from the probe-ZKD complex in the absence of compounds was set as 100%. C1632 was used as a control Lin28 inhibitor (Fig. 2B). […] Since the docking pocket is almost identical between Lin28a and Lin28b homologs, we repeated the FP assays using Lin28a ZKD (Figure S2).
The fluorescein amidites (FAM)-tagged pre-Let-7d probe with the sequence of […] was purchased from Integrated DNA Technologies (IDT). The probe at the concentrations ranging from 1 nM to 50 uM was incubated with Lin28B (ZKD) or Lin28 (CSD+ZKD) to a final volume of 30 uL at room temperature for 20 min. To read the fluorescence, a TECAN 500 machine was used. Fluorescence polarization was calculated using the following equation:
P=(Fparrallel−Fperpendicular)/(Fparrallel+FperpendicularP)
where P is the fluorescence polarization reading, F parallel is the fluorescence intensity acquired from the parallel excitation plane, and F perpendicular is the fluorescence intensity acquired from the perpendicular direction of the excitation plane. The total fluorescence intensity is estimated using the following equation:
F=Fparallel+2FperpendicularF.
All the raw FP signal data from the TECAN 500 FP results were analyzed using Prism 8.0 (GraphPad, San Diego, CA, USA); normalized curves were plotted and IC50 values were estimated. All FP data were repeated three to five times.
Figure S1. Lin28b ZKD protein was incubated with the indicated compounds at the concentration of 0, 0.1, 0.2, 0.5, 1, 2, 5, 10, 20, 50, 100, and 200uM. FP signals were measured and plotted relative to that from vehicle.

[7] = molecular target: T1, Lin28b ZKD; assay: 1H-15N HSQC NMR of Lin28b-ZKD with ligand; type: binding; details: ligand added in 20:1 molar ratio
Source text: Given that Ln268 is derived from the parent compound Ln15, we wanted to assess whether the improved properties of Ln268 were linked to a potential difference in its interaction with Lin28 ZKD. To this end, we collected ^1H-^15N HSQC spectra of Lin28b-ZKD, Lin28b-ZKD + Ln15, and Lin28b-ZKD + Ln268. RNA binding proteins (RBPs) commonly have binding pockets that are intrinsically disordered, as evidenced by the narrow chemical shift dispersion observed in the HQSC of Lin28b-ZKD alone (Fig. 3D). Addition of either Ln15 or Ln268 led to changes in the chemical shifts of ca. 20 residues, consistent with the change in conformation of the Lin28b-ZKD segment which encompasses residues 137–160 (three of which are prolines) upon RNA binding (Fig. 3E). Although many of the peak shifts are the same for the Ln15 and Ln268 containing samples, there are around 7 resonances where the peaks disappear in the case of Ln268.
NMR spectra were recorded at 5 °C on a Bruker Avance III 850 MHz spectrometer, equipped with a TCI cryoprobe. ^1H-^15N HSQC experiments were recorded on ^13C/^15N-labeled Lin28b ZKD (230 μM), in 20 mM d-Tris-HCl (pH 7.5), 100 mM NaCl, 1 mM d-DTT, 0.02% NaN3, 0.25 mM ZnCl2 + 1 mM IDA, and 10% D2O, to which unlabeled Ln15 and Ln268 was added, respectively. The time domain matrix was 4k by 512. Four scans were acquired per t1 increment. Spectra were processed and plotted using Topspin to a final size of 8k by 1k. For the overlays, the levels were set to the same base level in all cases, with a multiplication factor of 1.1.

SMILES | inhibition of Lin28b ZKD:pre-let-7d complex formation (EMSA) [1] | inhibition of Lin28a protein (EMSA) [2] | IC50 [3] [µM] | decrease of colony formation counts [4] [%] | concentration needed for inhibitory effects on cancer cells [5] | IC50 [6] [µM] | residues of Lin28b-ZKD with changed chemical shifts (1H-15N HSQC) [7]
CC(=O)N(C)c1cccc(-c2ccc3nnc(C)n3n2)c1 [C1632, reference compound] | did not observe any obvious inhibition | did not observe any obvious inhibition | 100 | 22 | exceeding 100 μM |  | 
O=c1[nH]c(Nc2ccccc2O)cs1 [Ln15] |  |  | 50 | 75 |  | 9 | ca. 20 residues
